For this assay, the system named is MDA-MB-468 multi-cell spheroids, viability. Nature of the assay: Anticancer human tumor MDA-MB-468 cell line growth inhibition [IpAb].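 On all read-outs here: spheroids exposed to agents for seven days.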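 On viability, T/C: 100% = DMSO vehicle control viability.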 To be noted: for viability, T/C: stronger effect = lower value. The essentials:
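Combinations with ipatasertib or abemaciclib were tested on tumour spheroids holding HUVEC (25%) and MSC (15%) alongside 60% malignant cells. Top concentration was at or near clinical Cmax (10 microM if undefined), descending in half-log steps.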

Where [1] appears, read: curve of first compound, second compound 0.1 µM.
The mark [2] stands for this setting: curve of first compound, second compound 0.316 µM.
[3] abbreviates: curve of first compound, second compound 1 µM.
Where [4] appears, read: second compound 0.1 µM, first compound 0.0316 µM.
Setting [5] is: second compound 0.1 µM, first compound 0.1 µM.
Where [6] appears, read: second compound 0.1 µM, first compound 0.316 µM.
Setting [7] is: second compound 0.1 µM, first compound 1 µM.
The mark [8] stands for this setting: second compound 0.1 µM, first compound 3.16 µM.
Setting [9] is: second compound 0.1 µM, first compound 10 µM.
The mark [10] stands for this setting: second compound 0.316 µM, first compound 0.0316 µM.
[11] abbreviates: second compound 0.316 µM, first compound 0.1 µM.
[12] abbreviates: second compound 0.316 µM, first compound 0.316 µM.
The mark [13] stands for this setting: second compound 0.316 µM, first compound 1 µM.
Where [14] appears, read: second compound 0.316 µM, first compound 3.16 µM.
Where [15] appears, read: second compound 0.316 µM, first compound 10 µM.
Setting [16] is: second compound 1 µM, first compound 0.0316 µM.
Where [17] appears, read: second compound 1 µM, first compound 0.1 µM.
Where [18] appears, read: second compound 1 µM, first compound 0.316 µM.
Where [19] appears, read: second compound 1 µM, first compound 1 µM.
Where [20] appears, read: second compound 1 µM, first compound 3.16 µM.
Where [21] appears, read: second compound 1 µM, first compound 10 µM.
Where [22] appears, read: curve of first compound, second compound 0.01 µM.
Where [23] appears, read: curve of first compound, second compound 0.0316 µM.
Setting [24] is: second compound 0.01 µM, first compound 0.0316 µM.
Setting [25] is: second compound 0.01 µM, first compound 0.1 µM.
[26] abbreviates: second compound 0.01 µM, first compound 0.316 µM.
Setting [27] is: second compound 0.01 µM, first compound 1 µM.
Where [28] appears, read: second compound 0.01 µM, first compound 3.16 µM.
The mark [29] stands for this setting: second compound 0.01 µM, first compound 10 µM.
Where [30] appears, read: second compound 0.0316 µM, first compound 0.0316 µM.
Setting [31] is: second compound 0.0316 µM, first compound 0.1 µM.
[32] abbreviates: second compound 0.0316 µM, first compound 0.316 µM.
Setting [33] is: second compound 0.0316 µM, first compound 1 µM.
Where [34] appears, read: second compound 0.0316 µM, first compound 3.16 µM.
The mark [35] stands for this setting: second compound 0.0316 µM, first compound 10 µM.

“And” between values parts separate entries of the source, which are not always exact repeats. Identical values can stand only once.

Broadly, the IC50 is the midpoint of a concentration-inhibition curve. The viability, T/C is the ratio of treated to control.

Turning to `Cc1nc(NC(=O)N2CCCC2C(N)=O)sc1-c1ccnc(C(C)(C)C(F)(F)F)c1` (centres undefined) + CC(C)NCC(C(=O)N1CCN(c2ncnc3c2C(C)CC3O)CC1)c1ccc(Cl)cc1, the concentration for half-maximal inhibition (IC50) reads like this: under setting [1], 5.51 µM; under setting [2], 3.82 µM; under setting [3], under 0.0316 µM; (curve of first compound, second compound 3.16 µM) under 0.0316 µM; (curve of first compound, second compound 10 µM) under 0.0316 µM. Also, the viability, T/C is 82.6% under setting [4]; 75.6% under setting [5]; 79.1% under setting [6]; 75.6% under setting [7]; 72.3% under setting [8]; 26.3% under setting [9]. Also, the viability, T/C was 61.5% under setting [10]; 61.1% under setting [11]; 58.9% under setting [12]; 53.7% under setting [13]; 57.1% under setting [14]; 16.3% under setting [15]. For the same molecule, the viability, T/C is, setting by setting: under setting [16], 47.8%; under setting [17], 45.7%; under setting [18], 48%; under setting [19], 36.8%; under setting [20], 31.4%; under setting [21], 8.2%. The viability, T/C reads like this: (second compound 3.16 µM, first compound 0.0316 µM) 32.6%; (second compound 3.16 µM, first compound 0.1 µM) 30.6%; (second compound 3.16 µM, first compound 0.316 µM) 25.5%; (second compound 3.16 µM, first compound 1 µM) 20.8%; (second compound 3.16 µM, first compound 3.16 µM) 20.6%; (second compound 3.16 µM, first compound 10 µM) 4.36%. Moreover, the viability, T/C was 16.3% (second compound 10 µM, first compound 0.0316 µM); 14.8% (second compound 10 µM, first compound 0.1 µM); 13.2% (second compound 10 µM, first compound 0.316 µM); 10.3% (second compound 10 µM, first compound 1 µM); 7.57% (second compound 10 µM, first compound 3.16 µM); 1.53% (second compound 10 µM, first compound 10 µM).

`Cc1nc(NC(=O)N2CCCC2C(N)=O)sc1-c1ccnc(C(C)(C)C(F)(F)F)c1` (centres undefined): the viability, T/C reads like this: (compound 0.0316 µM) 86.9% and 91.9%; (compound 0.1 µM) 93% and 82.5%; (compound 0.316 µM) 79.2% and 88.1%; (compound 1 µM) 64.3% and 95%; (compound 3.16 µM) 84% and 94.3%; (compound 10 µM) 25.2% and 31.6%. Further, the 50% inhibitory concentration (IC50) (curve of compound) is 6.02 µM and 6.99 µM.

For `Cn1ncc(Cl)c1-c1cc(C(=O)NC(CN)Cc2cccc(F)c2)sc1Cl` (centres undefined) + CCN1CCN(Cc2ccc(Nc3ncc(F)c(-c4cc(F)c5nc(C)n(C(C)C)c5c4)n3)nc2)CC1, the IC50 under setting [22] turned out to be 0.461 µM; the half-inhibitory concentration (IC50) under setting [23] was 0.319 µM; the IC50 under setting [1] turned out to be 0.318 µM; the concentration for half-maximal inhibition (IC50) under setting [2] is 0.396 µM; the 50% inhibitory concentration (IC50) under setting [3] worked out at 0.223 µM. Also, the viability, T/C under setting [24] is 88.4%; the viability, T/C under setting [25] is 74.1%; the viability, T/C under setting [26] is 57.7%; the viability, T/C under setting [27] was 36.6%; the viability, T/C under setting [28] is 11.8%; the viability, T/C under setting [29] is 0.13%. For the same molecule, the viability, T/C reads like this: under setting [30], 97.3%; under setting [31], 58.5%; under setting [32], 48%; under setting [33], 34.1%; under setting [34], 15.1%; under setting [35], 0.12%. Besides, the viability, T/C is, setting by setting: under setting [4], 109%; under setting [5], 72%; under setting [6], 51.5%; under setting [7], 31.8%; under setting [8], 11.2%; under setting [9], 0.11%. Besides, the viability, T/C runs as follows: under setting [10], 81.2%; under setting [11], 72.6%; under setting [12], 53.4%; under setting [13], 32.6%; under setting [14], 5.2%; under setting [15], 0.11%. Besides, the viability, T/C under setting [16] was 81.5%; the viability, T/C under setting [17] is 52.9%; the viability, T/C under setting [18] is 53.4%; the viability, T/C under setting [19] is 26%; the viability, T/C under setting [20] is 2.78%; the viability, T/C under setting [21] was 0.19%.

Regarding `Cn1nccc1Nc1nccc(-c2ccn(C(CO)c3ccc(Cl)c(F)c3)c(=O)c2)n1` (centres undefined), the viability, T/C by setting is: (compound 0.0316 µM) 84.7% and 94.8%; (compound 0.1 µM) 91.9% and 98.6%; (compound 0.316 µM) 100% and 83.9%; (compound 1 µM) 84.2% and 81.8%; (compound 3.16 µM) 68.4% and 64.4%; (compound 10 µM) 5.12% and 13.2%. For the same molecule, the IC50 (curve of compound) is 4.4 µM and 4.23 µM.

As for `CC1(C)CCC(CN2CCN(c3ccc(C(=O)NS(=O)(=O)c4ccc(NCC5CCOCC5)c([N+](=O)[O-])c4)c(Oc4cnc5[nH]ccc5c4)c3)CC2)=C(c2ccc(Cl)cc2)C1` + CCN1CCN(Cc2ccc(Nc3ncc(F)c(-c4cc(F)c5nc(C)n(C(C)C)c5c4)n3)nc2)CC1, the 50% inhibitory concentration (IC50) under setting [22] stood at 3.13 µM; the IC50 under setting [23] came out at 4.24 µM; the IC50 under setting [1] came out at 3.04 µM; the IC50 under setting [2] worked out at 4.28 µM; the concentration for half-maximal inhibition (IC50) under setting [3] came out at 2.04 µM. Moreover, the viability, T/C by setting is: under setting [24], 96.2%; under setting [25], 81.1%; under setting [26], 82.5%; under setting [27], 85%; under setting [28], 49.7%; under setting [29], 10.2%. For the same molecule, the viability, T/C under setting [30] is 88.6%; the viability, T/C under setting [31] is 86.9%; the viability, T/C under setting [32] was 89.8%; the viability, T/C under setting [33] was 74.8%; the viability, T/C under setting [34] was 66.2%; the viability, T/C under setting [35] was 9.92%. In addition, the viability, T/C under setting [4] is 92.1%; the viability, T/C under setting [5] was 96.6%; the viability, T/C under setting [6] was 105%; the viability, T/C under setting [7] is 109%; the viability, T/C under setting [8] was 48.1%; the viability, T/C under setting [9] is 9.29%. The viability, T/C reads like this: under setting [10], 99.3%; under setting [11], 109%; under setting [12], 94.9%; under setting [13], 94.1%; under setting [14], 64.1%; under setting [15], 9.61%. Further, the viability, T/C runs as follows: under setting [16], 75.4%; under setting [17], 86.5%; under setting [18], 78.8%; under setting [19], 77.9%; under setting [20], 32.9%; under setting [21], 5.14%.

(Values after PubChem BioAssay AID2060326 (Molecular Pharmacology Branch, DTP, NCI, 2025).)
